Measured values published in patent publication US20110039846A1, “IMINOPYRIDINE DERIVATIVES AND USE THEREOF” (TAKEDA PHARMACEUTICAL COMPANY LIMITED, priority 2008, published 2011).
Counter-ions that a name gives are not always drawn.

Biological target: T1, human α1D adrenaline receptor (Homo sapiens, UniProt P25100)
T1 construct: expressed in transfected cells
T1 sequence (P25100 1-572): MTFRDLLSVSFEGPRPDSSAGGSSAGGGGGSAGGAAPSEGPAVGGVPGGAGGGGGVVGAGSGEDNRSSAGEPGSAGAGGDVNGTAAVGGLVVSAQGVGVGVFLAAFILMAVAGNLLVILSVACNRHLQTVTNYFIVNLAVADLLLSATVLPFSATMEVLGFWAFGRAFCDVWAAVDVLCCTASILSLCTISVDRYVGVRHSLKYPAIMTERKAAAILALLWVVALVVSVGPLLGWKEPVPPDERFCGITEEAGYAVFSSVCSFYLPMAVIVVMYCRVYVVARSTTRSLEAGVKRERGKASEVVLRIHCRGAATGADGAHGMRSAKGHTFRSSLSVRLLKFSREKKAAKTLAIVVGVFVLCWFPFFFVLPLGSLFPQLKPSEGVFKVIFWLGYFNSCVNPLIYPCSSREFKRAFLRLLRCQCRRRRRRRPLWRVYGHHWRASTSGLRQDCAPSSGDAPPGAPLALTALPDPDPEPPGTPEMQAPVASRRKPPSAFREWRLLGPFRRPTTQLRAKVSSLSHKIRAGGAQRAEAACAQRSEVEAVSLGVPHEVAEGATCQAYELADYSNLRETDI
Assay: Measurement of α1D adrenaline receptor binding inhibitory activity ([3H] prazosin binding to membrane fraction of CHO-K1 cells expressing the receptor)
Settings: α1D adrenaline receptor binding inhibitory rate at 1 μM compound; [3H] prazosin 2.5 nM; CHO-K1 membrane fraction 20 μg/well; room temperature 1 hr
Procedure: Measurement of α1D Adrenaline Receptor Binding Inhibitory Activity
Genetic manipulation methods described below are based on the methods described in Maniatis et al., Molecular Cloning, Cold Spring Harbor Laboratory, 1989, the protocol appended to a reagent and the like.
α1D Adrenaline receptor gene was cloned from human liver cDNA by the PCR method. PCR reaction was performed by Gene Amp PCR System 9700 (Applied Biosystems) with 50 pmol each of the primer set 5′-[…]-3′ [SEQ ID NO: 1] and 5′-[…]-3′ [SEQ ID NO: 2] prepared in reference to the base sequence of the α1D adrenaline receptor gene reported by DEBRA A. et al. (J. Pharmacol. Exp. Ter., 272, 134-142 (1995)), 200 ng of human brain hippocampus cDNA library (Takara Shuzo Co., Ltd.) as a template and TaKaRa LA-Taq DNA Polymerase (Takara Shuzo Co., Ltd.) (reaction conditions: 45 cycles of 94° C. for 15 sec, 68° C. for 3.5 min).
The PCR fragment obtained above was digested with restriction enzymes NheI (Takara Shuzo Co., Ltd.) and Kpn I (Takara Shuzo Co., Ltd.), and applied to agarose gel electrophoresis to recover DNA fragments. The DNA fragments were ligated with animal cell expression plasmid pcDNA3.1/Zeo (Invitrogen) digested with NheI and Kpn I, by DNA Ligation Kit Ver.2 (Takara Shuzo Co., Ltd.), and transformed the competent cells of Escherichia coli JM109 to obtain plasmid, pcDNA3.1/Zeo-Adreα1D.
CHO-K1 cells passage cultured in HamF12 medium (Invitrogen) containing 10% fetal bovine serum (TRACE SCIENCETIFIC) in a 150 cm^2 culture flask (Corning Coaster) were detached with 0.5 g/L trypsin-0.2 g/L EDTA (Invitrogen), and the cells were washed with D-PBS(−) (Invitrogen) and centrifuged (1000 rpm, 5 min). Then, using Gene Pulser II (BioRad), DNA was introduced into the cells under the following conditions. 1×10^7 cells suspended in D-PBS(−) (700 μl) and 10 μg of pcDNA3.1/Zeo-Adreα1D were added in a 0.4 cm gap cuvette (BioRad), and electroporation was performed under voltage 0.25 kV, capacitance 960 μF. The cells were cultured in HamF12 medium containing 10% fetal bovine serum and 250 μg/mL Zeocin (Invitrogen) and the Zeocin resistance clones were selected.
Plurality of Zeocin resistance clones were selected and cultured in a cell culture flask (150 cm^2) until semiconfluent, and the cellular membrane fraction was prepared as follows.
The semiconfluent cells were detached with 0.02% EDTA containing D-PBS(−) and recovered by centrifugation. The cells were suspended in membrane preparation buffer (10 mM NaHCO3 pH 7.4, protease inhibitor cocktail (Roche)) and disrupted by 3 times of treatment in a polytron homogenizer (model PT-3100, KINEMATICA AG) at 20000 rpm for 20 seconds. After disruption, the cells were centrifuged at 2000 rpm for 10 min and the supernatant containing membrane fractions was obtained. The supernatant was centrifuged using an ultracentrifuge (model L8-70M, rotor 70 Ti, Beckman Instruments) at 30000 rpm for 1 hr to obtain a precipitate containing membrane fractions. The obtained membrane fraction of each clone was subjected to the binding experiment shown below.
The membrane fraction (20 μg/well) and [^3H] prazosin (2.5 nM, PerkinElmer Lifescience), as a ligand, were diluted with a binding assay buffer (50 mM Tris-HCl, 10 mM MgCl2, 0.5% BSA, protease inhibitor cocktail pH 7.5), added to a 96 well microplate, and reacted at room temperature for 1 hr. For the measurement of non-specific binding, phentolamine (Sigma) was further added to 10 μM. Then, the reaction mixture was filtered and transferred to unifilter GF/C (PerkinElmer Lifescience) by using a cell harvester (PerkinElmer Lifescience). The filter was washed 3 times with ice-cooled 50 mM Tris buffer (pH 7.5). After drying the filter, MicroScinti 0 (PerkinElmer Lifescience) was added to the filter and the radioactivity was measured by TopCount (PerkinElmer Lifescience). […]

SMILES	inhibition at 1 µM [%]
CS(=O)(=O)c1ccc(Cl)cc1Cn1cc(Cl)cc(C(N)=O)c1=N [Example 1, 5-chloro-1-[5-chloro-2-(methylsulfonyl)benzyl]-2-imino-1,2-dihydropyridine-3-carboxamide hydrochloride]	100
Cc1ccc(S(C)(=O)=O)c(Cn2cc(Cl)cc(C(N)=O)c2=N)c1 [Example 8, 5-chloro-2-imino-1-[5-methyl-2-(methylsulfonyl)benzyl]-1,2-dihydropyridine-3-carboxamide hydrochloride]	93.5
CS(=O)(=O)c1cc(Cl)cc(Cn2cc(Cl)cc(C(N)=O)c2=N)c1 [Example 12, 5-chloro-1-[3-chloro-5-(methylsulfonyl)benzyl]-2-imino-1,2-dihydropyridine-3-carboxamide hydrochloride]	87.5
C[S+]([O-])c1ccc(Cl)cc1Cn1cc(Cl)cc(C(N)=O)c1=N (stereo not shown) [Example 14, 5-chloro-1-[5-chloro-2-(methylsulfinyl)benzyl]-2-imino-1,2-dihydropyridine-3-carboxamide hydrochloride]	92
CS(=O)(=O)c1cc(Cn2cc(Cl)cc(C(N)=O)c2=N)ccc1Cl [Example 15, 5-chloro-1-[4-chloro-3-(methylsulfonyl)benzyl]-2-imino-1,2-dihydropyridine-3-carboxamide hydrochloride]	72.8
CCS(=O)(=O)c1ccc(Cl)cc1Cn1cc(Cl)cc(C(N)=O)c1=N [Example 17, 5-chloro-1-[5-chloro-2-(ethylsulfonyl)benzyl]-2-imino-1,2-dihydropyridine-3-carboxamide hydrochloride]	100
CS(=O)(=O)c1ccc(F)cc1Cn1cc(Cl)cc(C(N)=O)c1=N [Example 18, 5-chloro-1-[5-fluoro-2-(methylsulfonyl)benzyl]-2-imino-1,2-dihydropyridine-3-carboxamide hydrochloride]	93.5
CCS(=O)(=O)c1ccc(F)cc1Cn1cc(Cl)cc(C(N)=O)c1=N [Example 24, 5-chloro-1-[2-(ethylsulfonyl)-5-fluorobenzyl]-2-imino-1,2-dihydropyridine-3-carboxamide hydrochloride]	98.4
N=c1c(C(N)=O)cc(Cl)cn1Cc1cc(Cl)ccc1S(N)(=O)=O [Example 28, 5-chloro-1-(5-chloro-2-sulfamoylbenzyl)-2-imino-1,2-dihydropyridine-3-carboxamide hydrochloride]	91.2
N=c1c(C(N)=O)cc(Cl)cn1Cc1cc(Cl)ccc1N1CCCC1=O [Example 35, 5-chloro-1-[5-chloro-2-(2-oxopyrrolidin-1-yl)benzyl]-2-imino-1,2-dihydropyridine-3-carboxamide hydrochloride]	89
